Measurements taken from US20170050957A1, “4-AMINO-6-(HETEROCYCLIC)PICOLINATES AND 6-AMINO-2-(HETEROCYCLIC)PYRIMIDINE-4-CARBOXYLATES AND THEIR USE AS HERBICIDES” (Dow AgroSciences LLC, priority 2013, published 2017).
Where two headings read alike, the source gives them in different places.

Key:
[1] = tested on: Key Broadleaf Weed and Crop Species; assay: Post-emergent Test II herbicidal activity (Table 15); type: in vivo; conditions: post-emergence, 336 h, 14 d; for pest or weed control at 35 g/ha: 35 g ai/ha; for pest or weed control at 70 g/ha: 70 g ai/ha; for pest or weed control at 140 g/ha: 140 g ai/ha
Outline: (§1)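 Greenhouse-grown seedlings at first/second true leaf receive a track spray at 187 L/ha, using a highest rate plus two-fold serial dilutions down to 1/16×. Watering is by subirrigation to avoid wash-off. Percent injury (0-100) is judged by eye at 14 d against untreated plants.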

[2] = tested on: Key Grass and Sedge Weeds as well as Grass Crops; assay: Post-emergent Test II herbicidal activity (Table 16); type: in vivo; conditions: post-emergence, 336 h, 14 d; for pest or weed control at 35 g/ha: 35 g ai/ha; for pest or weed control at 70 g/ha: 70 g ai/ha; for pest or weed control at 140 g/ha: 140 g ai/ha
Outline: as §1

[3] = Abutilon theophrasti, velvetleaf (Abutilon theophrasti), read-out: Visual Growth Reduction (%) 14 Days After Application, ABUTH
[4] = Amaranthus retroflexus, redroot pigweed (Amaranthus retroflexus), read-out: Visual Growth Reduction (%) 14 Days After Application, AMARE
[5] = Brassica napus, oilseed rape, canola (Brassica napus), read-out: Visual Growth Reduction (%) 14 Days After Application, BRSNN
[6] = Chenopodium album, lambsquarters (Chenopodium album), read-out: Visual Growth Reduction (%) 14 Days After Application, CHEAL
[7] = Euphorbia heterophylla, wild poinsettia (Euphorbia heterophylla), read-out: Visual Growth Reduction (%) 14 Days After Application, EPHHL
[8] = Helianthus annuus, sunflower (Helianthus annuus), read-out: Visual Growth Reduction (%) 14 Days After Application, HELAN
[9] = Cyperus esculentus, yellow nutsedge (Cyperus esculentus), read-out: Visual Growth Reduction (%) 14 Days After Application, CYPES
[10] = Echinochloa crus-galli, barnyardgrass (Echinochloa crus-galli), read-out: Visual Growth Reduction (%) 14 Days After Application, ECHCG
[11] = Oryza sativa, rice (Oryza sativa), read-out: Visual Growth Reduction (%) 14 Days After Application, ORYSA
[12] = Setaria faberi, giant foxtail (Setaria faberi), read-out: Visual Growth Reduction (%) 14 Days After Application, SETFA
[13] = Triticum aestivum, wheat, spring (Triticum aestivum), read-out: Visual Growth Reduction (%) 14 Days After Application, TRZAS
[14] = Zea mays, maize, corn (Zea mays), read-out: Visual Growth Reduction (%) 14 Days After Application, ZEAMX

Q: How did the pest or weed control at 35 g/ha [1, 3] turn out when `Nc1c(F)c(-c2cc3[nH]ccc3cc2F)nc(C(=O)O)c1Cl` [Compound 1.14] was run?
A: Its pest or weed control at 35 g/ha is 0 to 29%.

Q: What about the pest or weed control at 70 g/ha [1, 3] of the same molecule?
A: The pest or weed control at 70 g/ha was 0 to 29%.

Q: What about the pest or weed control at 140 g/ha [1, 3] of the same molecule?
A: Its pest or weed control at 140 g/ha is 0 to 29%.

Q: What about the pest or weed control at 35 g/ha [1, 4] of the same molecule?
A: Its pest or weed control at 35 g/ha is 75 to 84%.

Q: And the pest or weed control at 70 g/ha [1, 4]?
A: Its pest or weed control at 70 g/ha is 85 to 94%.

Q: What about the pest or weed control at 140 g/ha [1, 4] of the same molecule?
A: The pest or weed control at 140 g/ha was 85 to 94%.

Q: What about the pest or weed control at 35 g/ha [1, 5] of the same molecule?
A: The pest or weed control at 35 g/ha was 45 to 59%.

Q: What about the pest or weed control at 70 g/ha [1, 5] of the same molecule?
A: The pest or weed control at 70 g/ha was 60 to 74%.

Q: What about the pest or weed control at 140 g/ha [1, 5] of the same molecule?
A: Its pest or weed control at 140 g/ha is 75 to 84%.

Q: What about the pest or weed control at 35 g/ha [1, 6] of the same molecule?
A: The pest or weed control at 35 g/ha was 60 to 74%.

Q: What about the pest or weed control at 70 g/ha [1, 6] of the same molecule?
A: Its pest or weed control at 70 g/ha is 60 to 74%.

Q: And the pest or weed control at 140 g/ha [1, 6]?
A: The pest or weed control at 140 g/ha was 75 to 84%.

Q: What about the pest or weed control at 35 g/ha [1, 7] of the same molecule?
A: Its pest or weed control at 35 g/ha is 0 to 29%.

Q: And the pest or weed control at 70 g/ha [1, 7]?
A: The pest or weed control at 70 g/ha was 0 to 29%.

Q: And the pest or weed control at 140 g/ha [1, 7]?
A: The pest or weed control at 140 g/ha was 60 to 74%.

Q: And the pest or weed control at 35 g/ha [1, 8]?
A: The pest or weed control at 35 g/ha was 60 to 74%.

Q: What about the pest or weed control at 70 g/ha [1, 8] of the same molecule?
A: Its pest or weed control at 70 g/ha is 75 to 84%.

Q: What about the pest or weed control at 140 g/ha [1, 8] of the same molecule?
A: The pest or weed control at 140 g/ha was 75 to 84%.

Q: What about the pest or weed control at 35 g/ha [2, 9] of the same molecule?
A: Its pest or weed control at 35 g/ha is 0 to 29%.

Q: And the pest or weed control at 70 g/ha [2, 9]?
A: Its pest or weed control at 70 g/ha is 0 to 29%.

Q: And the pest or weed control at 140 g/ha [2, 9]?
A: The pest or weed control at 140 g/ha was 0 to 29%.

Q: And the pest or weed control at 35 g/ha [2, 10]?
A: The pest or weed control at 35 g/ha was 0 to 29%.

Q: And the pest or weed control at 70 g/ha [2, 10]?
A: Its pest or weed control at 70 g/ha is 0 to 29%.

Q: What about the pest or weed control at 140 g/ha [2, 10] of the same molecule?
A: Its pest or weed control at 140 g/ha is 0 to 29%.

Q: What about the pest or weed control at 35 g/ha [2, 11] of the same molecule?
A: Its pest or weed control at 35 g/ha is 0 to 29%.

Q: And the pest or weed control at 70 g/ha [2, 11]?
A: The pest or weed control at 70 g/ha was 0 to 29%.

Q: What about the pest or weed control at 140 g/ha [2, 11] of the same molecule?
A: The pest or weed control at 140 g/ha was 0 to 29%.

Q: And the pest or weed control at 35 g/ha [2, 12]?
A: Its pest or weed control at 35 g/ha is 0 to 29%.

Q: What about the pest or weed control at 70 g/ha [2, 12] of the same molecule?
A: Its pest or weed control at 70 g/ha is 0 to 29%.

Q: And the pest or weed control at 140 g/ha [2, 12]?
A: Its pest or weed control at 140 g/ha is 0 to 29%.

Q: And the pest or weed control at 35 g/ha [2, 13]?
A: Its pest or weed control at 35 g/ha is 0 to 29%.

Q: And the pest or weed control at 70 g/ha [2, 13]?
A: Its pest or weed control at 70 g/ha is 0 to 29%.

Q: And the pest or weed control at 140 g/ha [2, 13]?
A: Its pest or weed control at 140 g/ha is 0 to 29%.

Q: What about the pest or weed control at 35 g/ha [2, 14] of the same molecule?
A: Its pest or weed control at 35 g/ha is 0 to 29%.

Q: What about the pest or weed control at 70 g/ha [2, 14] of the same molecule?
A: Its pest or weed control at 70 g/ha is 0 to 29%.

Q: And the pest or weed control at 140 g/ha [2, 14]?
A: The pest or weed control at 140 g/ha was 0 to 29%.

Q: Which results are given for `COC(=O)c1nc(-c2ccc(Cl)c3cc[nH]c23)c(F)c(N)c1Cl` [Compound 1.46]?
A: pest or weed control at 35 g/ha [1, 3]: 0 to 29%; pest or weed control at 70 g/ha [1, 3]: 0 to 29%; pest or weed control at 140 g/ha [1, 3]: 0 to 29%; pest or weed control at 35 g/ha [1, 4]: 0 to 29%; pest or weed control at 70 g/ha [1, 4]: 0 to 29%; pest or weed control at 140 g/ha [1, 4]: 60 to 74%; pest or weed control at 35 g/ha [1, 5]: 0 to 29%; pest or weed control at 70 g/ha [1, 5]: 0 to 29%; pest or weed control at 140 g/ha [1, 5]: 0 to 29%; pest or weed control at 35 g/ha [1, 6]: 75 to 84%; pest or weed control at 70 g/ha [1, 6]: 85 to 94%; pest or weed control at 140 g/ha [1, 6]: 95 to 100%; pest or weed control at 35 g/ha [1, 7]: 0 to 29%; pest or weed control at 70 g/ha [1, 7]: 0 to 29%; pest or weed control at 140 g/ha [1, 7]: 0 to 29%; pest or weed control at 35 g/ha [1, 8]: 0 to 29%; pest or weed control at 70 g/ha [1, 8]: 30 to 44%; pest or weed control at 140 g/ha [1, 8]: 45 to 59%; pest or weed control at 35 g/ha [2, 9]: 0 to 29%; pest or weed control at 70 g/ha [2, 9]: 0 to 29%; pest or weed control at 140 g/ha [2, 9]: 0 to 29%; pest or weed control at 35 g/ha [2, 10]: 0 to 29%; pest or weed control at 70 g/ha [2, 10]: 0 to 29%; pest or weed control at 140 g/ha [2, 10]: 0 to 29%; pest or weed control at 35 g/ha [2, 11]: 0 to 29%; pest or weed control at 70 g/ha [2, 11]: 0 to 29%; pest or weed control at 140 g/ha [2, 11]: 0 to 29%; pest or weed control at 35 g/ha [2, 12]: 0 to 29%; pest or weed control at 70 g/ha [2, 12]: 0 to 29%; pest or weed control at 140 g/ha [2, 12]: 0 to 29%; pest or weed control at 35 g/ha [2, 13]: 0 to 29%; pest or weed control at 70 g/ha [2, 13]: 0 to 29%; pest or weed control at 140 g/ha [2, 13]: 0 to 29%; pest or weed control at 35 g/ha [2, 14]: 0 to 29%; pest or weed control at 70 g/ha [2, 14]: 0 to 29%; pest or weed control at 140 g/ha [2, 14]: 0 to 29%
